Measured values: patent US20110178072A1, “STEREOSPECIFICITY OF METHYLSULFINYL REDUCTION” (priority 2008, published 2011)

Tests used:
CBS = assay: Western blot analysis of CBS in SK-Hep1 cells grown on Met and Met sulfoxide media; format: cell-based, human; settings: 0.1 mM
Procedure: Analysis of SK-Hep1 and fRMsr-transfected SK-Hep1 cells—SK-Hep1 and fRMsr-transfected SK-Hep1 cells were plated in 6-well plates at 7.5×10^4 cells/well in regular DMEM medium. The medium was changed to Met-free DMEM supplemented with either Met or individual Met sulfoxides at 24 hours after plating. Cells were then collected every 24 hours until 96 hours. Protein concentration was measured by the Bradford assay and the samples were probed by standard immunoblot assays with polyclonal MsrA (kindly provided by Bertrand Friguet), cystathionine beta synthase (CBS) (kindly provided by Ruma Banerjee), and activating transcription factor 3 (ATF3) (Santa Cruz Biotechnology) antibodies.

[1] = system: MsrA-knockdown SK-Hep1 cells; assay: Growth of MsrA-knockdown SK-Hep1 cells on Met and Met sulfoxide media; format: cell-based, human; settings: 0.1 mM, 96 hours
Procedure: Proliferation Assay—Cell growth was quantified using colorimetric MTS assay (Promega). Cells in regular DMEM medium were plated in 96-well plates at 5×10^3 cells/well, washed with PBS, and specialized DMEM media were added that contained Met, Met-SO, Met-RO, or Met-RSO 24 hours after plating. To assay for cell proliferation, a tetrazolium compound [3-(4,5-dimethylthiazol-2-yl)-5-(3-carboxymethoxyphenyl)-2-(4-sulfophenyl)-2H-tetrazolium, inner salt; MTS] and an electron coupling reagent (phenazine methosulfate; PMS) were mixed according to the manufacturer's protocol and then 20 μL of the mixture were added to 100 μL of phenol red-excluded media that further replaced cell culture media. After 90 minutes of incubation at 37° C. in the atmosphere of 5% CO2, cell proliferation was measured at indicated time periods from 0 to 96 hours at 450 nm in a plate reader. Direct counting of viable cells using 0.2% trypan blue was done in 6-well plates. Knockdown of MsrA in SK-Hep1 cells by siRNA—Double stranded siRNAs (Dharmacon) for targeting human MsrA mRNA were used to knockdown this gene in SK-Hep1 cells. Cells were transfected with siRNA by using DharmaFECT™ Transfection Reagent (Dharmacon) according to the manufacturer's protocol. Proliferation of these cells was assayed 60 hours after transfection in comparison with control transfected cells.

SK-Hep1 cell extracts = assay: Specific activity of SK-Hep1 cell extracts for reduction of free Met sulfoxides; format: biochemical, human; settings: for Specific activity for each Met-O: SK-Hep1, ± standard deviations from 3 independent experiments
Procedure: HPLC analysis of media samples-Cells were plated in 6-well plates at 7.5×10^4 cells/well in 1.5 mL of regular DMEM medium. After 24 hours, cells were washed with PBS and the medium was changed to a modified DMEM containing Met, Met-SO, Met-RO, or Met-RSO (0.1 mM of each amino acid). 90 μL of medium from each well was collected at 0, 24, 48, 72, 96 hours and mixed with 10 μL of 100% TCA. After incubation at 4° C. for 10 minutes and centrifugation at 13,000 rpm for 15 minutes, the supernatant (50 μL) was diluted 10 times with distilled water and prepared for OPA derivatization. OPA derivatization of amino acids and HPLC analysis was performed as described (Sharov, V. S., Ferrington, D. A., Squier, T. C., […]. (1999) FEBS Lett. 455, 247-250) with minor modifications. The derivatization reagent was freshly prepared as a stock solution (40 mg of o-phthalaldehyde, 1 mL of methanol, 50 μL, of 2-mercaptoehanol, 5 mL of 0.1 M Na2B4O7, pH 9.5) at room temperature in a capped amber vial. Sample solutions (2-5 μL) were mixed with the OPA derivatization reagent to 100 μL, final volume. Following a 2 minute reaction at room temperature, the mixture was fractionated on a Zorbax Eclipse XDB-C8 column (4.6×150 mm). Changes in Met levels in the fRMsr activity assay were similarly quantified. […] Activity assays of fRMsr-Reaction mixture (40 μL) included 50 mM DTT, 1 mM substrate (Met-RO or Met-SO), and purified enzyme or cell lysate prepared by treatment with […] cell lysis reagent (Sigma). 20 μL of the reaction mixture was mixed with 2 μL of TCA and subjected to OPA derivatization as described above and then injected onto the column to measure endogenous Met level in the samples. An additional 20 μL from the same original reaction mixture were incubated at 37° C. for 30 minutes and then subjected to OPA derivatization by the same procedure using TCA. After derivatization of the sample (2-5 μL) by adding OPA solution to 100 μL as a final volume, 50 μL of the mixture were subjected to an HPLC separation as described above.

[2] = system: yfRMsr transfected SK-Hep1; assay: Specific activity of yfRMsr transfected SK-Hep1 cells towards free Met sulfoxides; format: biochemical, human; settings: for Specific activity of fRMsr-transfected cells: fRMsr-transfected SK-Hep1 cells; for Specific activity for each Met-O: yfRMsr transfected SK-Hep1, ± standard deviations from 3 independent experiments
Procedure: Transfection of yeast fRMsr gene into SK-Hep1 cells—A 6 His-tag sequence was cloned at the C-terminus of yeast fRMsr, the sequence was inserted into a mammalian expression vector, pCI-neo (Promega), and the resulting construct was verified by DNA sequencing. […] To establish a stable cell line, cells were selected in the presence of 800 μg/mL G418 sulfate (Promega), and further maintained in the presence of 400 μg/mL G418 sulfate. Expression of recombinant fRMsr was verified by western blotting using anti-His-tag antibodies and Msr activities were assayed by an HPLC method using OPA derivatization.
Activity assays of fRMsr—Reaction mixture (40 μL) included 50 mM DTT, 1 mM substrate (Met-RO or Met-SO), and purified enzyme or cell lysate prepared by treatment with CelLytic™M cell lysis reagent (Sigma). 20 μL of the reaction mixture was mixed with 2 μL of TCA and subjected to OPA derivatization as described above and then injected onto the column to measure endogenous Met level in the samples. An additional 20 μL from the same original reaction mixture were incubated at 37° C. for 30 minutes and then subjected to OPA derivatization by the same procedure using TCA. After derivatization of the sample (2-5 μL) by adding OPA solution to 100 μL as a final volume, 50 μL of the mixture were subjected to an HPLC separation as described above.

Compound | Expression of CBS (CBS; SK-Hep1 cells) | Expression of CBS (CBS; fRMsr-expressing SK-Hep1 cells) | Growth of MsrA-deficient cells [1] | Specific activity for each Met-O (SK-Hep1 cell extracts) | Specific activity of SK-Hep1 cell extracts for reduction of free Met sulfoxide (SK-Hep1 cell extracts) | Specific activity of fRMsr-transfected cells [2] | Specific activity for each Met-O [2] [pmol/min/mg]
C[S@@+]([O-])CC[C@H](N)C(=O)O [Met-RO, methionine-R-sulfoxide] | reduced expression | normal CBS levels | grew neither | ND* (A signal corresponding to specific activity less than 5 pmol/min/mg is shown as ND (Not Detectable)) | No free Met-RO reductase activity was detected | ≈ 46.4 pmol/min/mg protein | 46.4 ± 5.0
C[S@+]([O-])CC[C@H](N)C(=O)O [Met-SO, methionine-S-sulfoxide] | CBS levels were decreased |  | grew neither | 38.6 ± 3.6 pmol/min/mg | ≈ 38.6 pmol/min/mg protein | ≈ 42.7 pmol/min/mg protein | 42.7 ± 5.9
